Earlier results, collected in patent US8980929B2, “Substituted seven-membered heterocyclic compounds as dipeptidyl peptidase-iv inhibitors for the treatment of diabetes” (Merck Sharp & Dohme Corp., priority 2010, dated 2015).
One block for each compound: values may come before it.

Assays:
cardiac allograft = conditions: rats; doubled from day 7
hematopoiesis = conditions: mouse, cyclophosphamide-induced neutropenia
DPP-4 = DPP-4 (Homo sapiens (Human), UniProt P27487)
Chain of DPP-4 (P27487 whole entry, species assumed): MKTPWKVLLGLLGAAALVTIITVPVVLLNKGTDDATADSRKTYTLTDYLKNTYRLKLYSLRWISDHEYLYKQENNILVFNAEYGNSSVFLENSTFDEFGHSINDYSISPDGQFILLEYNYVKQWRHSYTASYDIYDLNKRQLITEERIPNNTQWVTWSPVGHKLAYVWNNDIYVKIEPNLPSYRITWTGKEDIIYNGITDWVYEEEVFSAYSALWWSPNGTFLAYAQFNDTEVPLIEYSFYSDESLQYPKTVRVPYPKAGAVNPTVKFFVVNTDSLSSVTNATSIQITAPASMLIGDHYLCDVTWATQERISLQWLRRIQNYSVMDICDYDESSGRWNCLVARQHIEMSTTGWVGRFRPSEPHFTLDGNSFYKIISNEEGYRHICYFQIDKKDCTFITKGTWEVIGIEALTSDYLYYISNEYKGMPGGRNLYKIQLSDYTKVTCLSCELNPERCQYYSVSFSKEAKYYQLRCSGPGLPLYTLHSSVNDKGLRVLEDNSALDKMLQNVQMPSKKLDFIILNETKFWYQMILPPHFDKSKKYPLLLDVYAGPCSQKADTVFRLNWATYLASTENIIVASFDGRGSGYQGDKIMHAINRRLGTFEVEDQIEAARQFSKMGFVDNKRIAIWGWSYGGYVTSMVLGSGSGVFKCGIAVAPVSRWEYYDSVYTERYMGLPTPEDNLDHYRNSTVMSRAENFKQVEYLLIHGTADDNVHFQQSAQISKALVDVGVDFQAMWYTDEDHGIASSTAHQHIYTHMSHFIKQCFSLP

Compound: CC(C)N1CCC(c2ccccc2)(c2ccccc2)CC1 [Prodipine, Pro-Pro-diphenyl-phosphonate]
cardiac allograft survival (cardiac allograft): 14 day

Compound: CC(C)[C@H](N)C(=O)N1CCC[C@H]1B(O)O [Val-Boro-Pro]
hematopoiesis (hematopoiesis): stimulated hematopoiesis

degradation of GRF to GRF[3-44] in plasma (DPP-4): prevented
Compound: diprotin A
